Key:
[1] = system: high Adenine, high phosphate rat model; assay: MSCT assessment of valve calcification (Agatston score), foscarnet study; format: in vivo; details: 5 mg/kg foscarnet i.p. (group B) vs diet group A, ninth week, P=0.05
Method: MSCT scanning without contrast was performed on all rats (Brilliance, Philips Medical Systems, Groningen, Netherlands) on the ninth week. Study parameters were: 120 KVp, 300 mAs, slice thickness 0.67 mm, increment 0.3 mm. The scan was analyzed by an operator blinded to the study groups, on an off-line CT workstation. The Agatston Score was calculated by multiplying the area of a calcified lesion with a weighted CT attenuation score dependent on the maximal CT attenuation (HU) within a lesion as previously described [Agatston, A. S., et al. Journal of the American College of Cardiology 15:827-832 (1990)]. In order to asses the effect of foscarnet on treating AVC in vivo, the high Adenine, high phosphate rat model was used. Three different groups (10 rats each) were fed daily with the Adenine diet (diet group) for 6 weeks (Group A). Group B (n=9) followed the same protocol and was also treated with 5 mg/kg foscarnet administered intraperitoneally (i.p.). The control group C, received daily chew. Renal function tests, electrolytes were followed for nine weeks. Multislice computed tomography (MSCT) was performed at the ninth week. Calcium scores were calculated using the Agatston score.

[2] = system: TNF-α; assay: TNF-α levels in supernatants of myofibroblasts; format: cell-based, rat; details: myofibroblasts treated with foscarnet; 69 pg/ml without
Excerpt: (§1) In order to investigate whether the beneficial effect of foscarnet on the calcification process also affects immunomodulatory parameters, the inventors the effect of foscarnet on the levels of cytokines that are known as having a role in osteoblast transformation and maturation. Therefore, levels of TNF-α and IL-6 were next measured in supernatants of myofibroblasts treated with foscarnet. […] IL-6 levels.

[3] = system: valve myofibroblasts; assay: Von Kossa staining of cultured valve myofibroblasts (calcification / mineralization); format: cell-based, rat; details: for osteogenic differentiation and calcification of valve myofibroblasts (Von kossa staining): 1, 10 or 100 μg/ml, fourteen days
Method: The present inventors have now further explored the calcification process in an attempt to specifically identify targets for interfering and prevention thereof. Therefore, the inventors next examined myofibroblasts obtained from the aortic valve of wild type rats, cultured in 24 well plates.
Myofibroblasts were incubated with PTH ([…]), or phosphate, 1, 10 or 100 μg/ml) for fourteen days. As shown by the Von kossa (calcium) staining presented by FIG. 7, the phosphate treatment, but not the PTH, induces osteogenic differentiation and calcification of valve myofibroblasts.
To test the possibility that inhibition of PIT1 would decrease mineralization, valve myofibroblasts were incubated with 10 μg/ml phosphate, or with phosphate and 0.5 mM foscarnet, the specific PIT1 inhibitor for 7 days.

[4] = system: IL-6; assay: IL-6 levels in supernatants of myofibroblasts; format: cell-based, rat; details: myofibroblasts treated with foscarnet
Excerpt: as §1

In the case of `O=C(O)P(=O)(O)O` [foscarnet], the “AVC, Agatston score (MSCT)” value [1] is reported as 21, the “AVC, Agatston score (MSCT)” value ([1]; listed as Forscarnet) is reported as “significant decrease” and the “TNF-α levels in supernatants” value [2] is reported as 5 pg/mL. The “cell mineralization (Von kossa staining)” value ([3]; 10 μg/ml phosphate plus 0.5 mM foscarnet, 7 days) was “completely inhibited” and the “IL-6 levels in supernatants” value [4] was “no effect”.

In the case of phosphate, the “osteogenic differentiation and calcification of valve myofibroblasts (Von kossa staining)” value [3] is reported as “induces”.

B1: PTH: peptide hormone, the most important regulator of calcium and phosphate metabolism (peptide, UniProt P01270 32-115, looked up)
Parathyroid hormone: SVSEIQLMHNLGKHLNSMERVEWLRKKLQDVHNFVALGAPLAPRDAGSQRPRKKEDNVLVESHEKSLGEADKADVNVLTKAKSQ
modifications: Parathyroid hormone
With B1 the “osteogenic differentiation and calcification of valve myofibroblasts (Von kossa staining)” value [3] was “not”.

Source: US20100249048A1, “BETA GLYCOLIPIDS FOR THE TREATMENT OF CALCIFICATION RELATED DEGENERATIVE DISORDERS” (priority 2007, published 2010)
